This note sets out measurements from patent publication US20230374007A1, “COMPOUNDS AND THEIR USE IN TREATING CANCER” (AstraZeneca AB, priority 2020, published 2023).

The target of the assay is T1, cereblon (CRBN)—DNA damage protein 1 (DDB1) complex (Homo sapiens, UniProt Q96SW2).
T1 construct: encoding amino acid residues 1 to 442 (Uniprot Q96SW2); hexahistidine (N); thrombin cleavage site (N); made in house; host or cells: Sf9 insect cells (baculovirus co-infection)
T1 sequence (Q96SW2 with tags, fused parts or gaps): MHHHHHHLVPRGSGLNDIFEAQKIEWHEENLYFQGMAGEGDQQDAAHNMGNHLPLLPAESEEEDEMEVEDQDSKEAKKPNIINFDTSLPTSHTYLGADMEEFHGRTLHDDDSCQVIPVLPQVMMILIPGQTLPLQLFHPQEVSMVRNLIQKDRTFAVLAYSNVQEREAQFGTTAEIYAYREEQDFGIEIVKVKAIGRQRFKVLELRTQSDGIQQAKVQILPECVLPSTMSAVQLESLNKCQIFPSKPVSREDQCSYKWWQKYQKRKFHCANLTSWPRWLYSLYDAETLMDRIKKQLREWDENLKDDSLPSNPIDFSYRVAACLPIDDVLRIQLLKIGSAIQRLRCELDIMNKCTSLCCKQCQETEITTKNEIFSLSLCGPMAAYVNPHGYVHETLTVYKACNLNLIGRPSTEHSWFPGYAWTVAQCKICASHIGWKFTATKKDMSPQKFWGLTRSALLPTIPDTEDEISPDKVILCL
The experiment in a line: Cereblon HTRF binding assay. From the text: The synthesized sequence was designed to encode an N-terminal hexahistidine tag, a thrombin cleavage site, an AviTag™ and a tobacco etch virus protease (TEV) cleavage site followed by the CBRN sequence. The resulting protein sequence is listed below.
The synthesized sequence was designed to encode an N-terminal hexahistidine tag, a tobacco etch virus protease (TEV) cleavage site followed by the DDB1 sequence. […] The linker amino acid residues are underlined and shown in italics.
Baculovirus production of CBRN and DDB1: Recombinant bacmid and P2 virus of CBRN and DDB1 was generated according to the Bac-to-Bac Baculovirus Expression System manual (ThermoFisher Scientific).
Protein Purification: Protein purification was initiated by thawing cells (resuspended in Lysis buffer) at r.t. Once thawed, NaCl was added to a final concentration of 200 mM, followed by 0.01 μL/mL Benzonase™ and the lysate was incubated with slow stirring for 20 minutes. After the freeze-thaw lysis, the whole cell lysate was centrifuged at 48 000 g for 45 minutes and all following purification steps were done on ice or in cold-room. Supernatant (cell lysate) was mixed with 1 mL/50 mL lysate Ni Sepharose™ 6 Fast Flow (Cytiva) pre-equilibrated with Wash buffer (50 mM Tris-Cl pH 8, 20 mM Imidazole, 500 mM NaCl, 10% Glycerol, 1 mM TCEP) and incubated with slow stirring for 1 h. The mix was loaded in a 70 mL open gravity flow column, washed with 10 bed volumes of Wash buffer, and stepwise eluted with 300 mM imidazole in Wash buffer. […] After biotinylation, the CBRN/DDB1 complex was purified by Size Exclusion Chromatography on a HiLoad™ 26/60 Superdex™ 200 column equilibrated in SEC buffer (50 mM HEPES pH 7.5, 200 mM NaCl, 5% glycerol, 1 mM TCEP) before flash-freezing in liquid nitrogen and storage at −80° C.
The assay mixture in a total volume of 4 μL consists of 50 mM Tris-HCl at pH 7.5, 100 mM NaCl, 0.01% Pluronic F127, 1 mM TCEP, 500 μM EDTA, 0.2 nM CRBN-DDB1, 0.2 nM terbium cryptate labeled streptavidin, and 2 nM Cyanine 5-labeled lenalidomide as the probe. […] Reagents were dispensed into the 384-well assay microplate using a Certus Flex liquid dispenser. After incubation for 2 h at r.t., the assay plates were read on a PHERAstar FSX plate reader (BMG Labtech) in the HTRF mode. The raw data from PHERAstar was directly imported into Genedata Screener for analysis. […] The ratio was normalized to positive and negative controls on the same plates to calculate percent inhibition: I %=(I−NC)/(PC−NC), where I are readings from the compound treated well, NC and PC are average readings from negative control wells and positive control wells, respectively. IC50 values were obtained by fitting the I % vs. compound concentration [I] to I %=S0+(SInf−S0)/(1+((IC50/[I])^n)), where S0 is the fitted activity level at zero concentration of test compound, SInf is the fitted activity level at […] concentration of test compound, and n is the hill coefficient of the curve.
The IC50 values reported below are the calculated mean result of one or more experiments.
For orientation: IC50 means the concentration that gives 50% inhibition. In turn, `CN1CCN(c2c[nH]c3ccc(N4CCC(=O)NC4=O)cc23)CC1` [Example 78, 1-(3-(4-Methylpiperazin-1-yl)-1H-indol-5-yl)dihydropyrimidine-2,4 (1H,3H)-dione] came in with a concentration for half-maximal inhibition (IC50) of 1.87 µM. That is a single-digit micromolar value.
`O=C1CCN(c2cccc3ncsc23)C(=O)N1` [Example 2, 1-(Benzo[d]thiazol-7-yl)dihydropyrimidine-2,4 (1H,3H)-dione] had an IC50 of 2 µM. The IC50 values of the last two compounds are within 1.5-fold of each other.
Turning to `CN1CCC(n2ccc3cc(N4CCC(=O)NC4=O)ccc32)CC1` [Example 114, 1-(1-(1-Methylpiperidin-4-yl)-1H-indol-5-yl)dihydropyrimidine-2,4 (1H,3H)-dione], the 50% inhibitory concentration (IC50) was determined as 1.05 µM. This IC50 lies about 1.9-fold lower than the previous one.
`O=C1CCN(c2ccc3c(c2)NCCC3)C(=O)N1` [Example 32, 1-(1,2,3,4-Tetrahydroquinolin-7-yl)dihydropyrimidine-2,4 (1H,3H)-dione] had an IC50 of 1.23 µM.
In the case of `CN1CCc2ccc(N3CCC(=O)NC3=O)cc2C1` [Example 29, 1-(2-Methyl-1,2,3,4-tetrahydroisoquinolin-7-yl)dihydropyrimidine-2,4 (1H,3H)-dione], the 50% inhibitory concentration (IC50) is 8.01 µM.
In turn, `O=C1CCN(c2ccc3c(C4CCNCC4)c[nH]c3c2)C(=O)N1` [Example 116, 1-(3-(Piperidin-4-yl)-1H-indol-6-yl)dihydropyrimidine-2,4 (1H,3H)-dione] displayed a half-maximal inhibitory concentration (IC50) of 0.368 µM.
The same measure for `O=C1CCN(c2cccc3[nH]ncc23)C(=O)N1` [Example 34, 1-(1H-Indazol-4-yl)dihydropyrimidine-2,4 (1H,3H)-dione]: 0.627 µM.
The same measure for `O=C1CCN(c2ccc3cc(C4CCNCC4)[nH]c3c2)C(=O)N1` [Example 81, 1-(2-(Piperidin-4-yl)-1H-indol-6-yl)dihydropyrimidine-2,4 (1H,3H)-dione]: 0.065 µM; for `CN1CCC(c2cc3c(N4CCC(=O)NC4=O)cccc3n2C)CC1` [Example 89, 1-(1-Methyl-2-(1-methylpiperidin-4-yl)-1H-indol-4-yl)dihydropyrimidine-2,4 (1H,3H)-dione]: 1.21 µM; for `O=C1CCN(c2cc(F)c3cc[nH]c3c2)C(=O)N1` [Example 50, 1-(4-Fluoro-1H-indol-6-yl)dihydropyrimidine-2,4 (1H,3H)-dione]: 0.226 µM.
`O=C1CCN(c2ccc3cc4n(c3c2)CCNC4)C(=O)N1` [Example 102, 1-(1,2,3,4-Tetrahydropyrazino[1,2-a]indol-7-yl)dihydropyrimidine-2,4 (1H,3H)-dione]: the IC50 turned out to be 0.274 µM.
The value for `CN1CCC(c2cc3ccc(N4CCC(=O)NC4=O)cc3[nH]2)CC1` [Example 82, 1-(2-(1-Methylpiperidin-4-yl)-1H-indol-6-yl)dihydropyrimidine-2,4 (1H,3H)-dione] was 0.168 µM; that for `O=C1CCN(c2ccc3nc[nH]c3c2)C(=O)N1` [Example 41, 1-(1H-Benzo[d]imidazol-6-yl)dihydropyrimidine-2,4 (1H,311)-dione] was 1.17 µM; that for `O=C1CCN(c2cccc3ncoc23)C(=O)N1` [Example 4, 1-(Benzo[d]oxazol-7-yl)dihydropyrimidine-2,4 (1H,3H)-dione] was 3.88 µM.
The same measure for `COc1cc(N2CCC(=O)NC2=O)cc2[nH]ccc12` [Example 52, 1-(4-Methoxy-1H-indol-6-yl)dihydropyrimidine-2,4 (1H,3H)-dione]: 0.445 µM; for `CNC(=O)CCn1ccc2ccc(N3CCC(=O)NC3=O)cc21` [Example 69, 3-(6-(2,4-Dioxotetrahydropyrimidin-1 (2H)-yl)-1H-indol-1-yl)-N-methylpropanamide]: 3.54 µM; for `CN1CCN(c2nc3ccc(N4CCC(=O)NC4=O)cc3o2)CC1` [Example 99, 1-(2-(4-Methylpiperazin-1-yl)benzo[d]oxazol-6-yl)dihydropyrimidine-2,4 (1H,3H)-dione]: 4.56 µM.
As to `O=C1CCN(c2cccc3nc(N4CCNCC4)sc23)C(=O)N1` [Example 101, 1-(2-(Piperazin-1-yl)benzo[d]thiazol-7-yl)dihydropyrimidine-2,4 (1H,3H)-dione], the IC50 was found to be 0.161 µM.
`CNC(=O)Cc1cc2ccc(N3CCC(=O)NC3=O)cc2[nH]1` [Example 67, 2-(6-(2,4-Dioxotetrahydropyrimidin-1 (2H)-yl)-1H-indol-2-yl)-N-methylacetamide] showed a half-maximal inhibitory concentration (IC50) of 0.974 µM.
The same measure for `O=C1CCN(c2ccc3c(N4CCNCC4)noc3c2)C(=O)N1` [Example 93, 1-(3-(Piperazin-1-yl)benzo[d]isoxazol-6-yl)dihydropyrimidine-2,4 (1H,3H)-dione]: 12.8 µM; for `CN1CCC(c2cc3ccc(N4CCC(=O)NC4=O)cc3n2C)CC1` [Example 85, 1-(1-Methyl-2-(1-methylpiperidin-4-yl)-1H-indol-6-yl)dihydropyrimidine-2,4 (1H,3H)-dione]: 0.195 µM; for `CN1CCN(c2ccc(N3CCC(=O)NC3=O)c3ccn(C)c23)CC1` [Example 126, 1-(1-Methyl-7-(4-methylpiperazin-1-yl)-1H-indol-4-yl)dihydropyrimidine-2,4 (1H,3H)-dione]: 0.577 µM.
Turning to `O=C1CCN(c2ccc3c(c2)CNCC3)C(=O)N1` [Example 28, 1-(1,2,3,4-Tetrahydroisoquinolin-7-yl)dihydropyrimidine-2,4 (1H,3H)-dione], the half-maximal inhibitory concentration (IC50) was determined as 17 µM.
The value for `CC(=O)N1CCC(c2c[nH]c3cc(N4CCC(=O)NC4=O)ccc23)CC1` [Example 118, 1-(3-(1-Acetylpiperidin-4-yl)-1H-indol-6-yl)dihydropyrimidine-2,4 (1H,3H)-dione] was 0.389 µM; that for `O=C1CCN(c2ccc3c(c2)CCNC3)C(=O)N1` [Example 30, 1-(1,2,3,4-Tetrahydroisoquinolin-6-yl)dihydropyrimidine-2,4 (1H,3H)-dione] was 8.68 µM.
`O=c1ccn(-c2ccc3cc[nH]c3c2)c(=O)[nH]1` [Example 13, 1-(1H-Indol-6-yl)pyrimidine-2,4 (1H,3H)-dione] had a 50% inhibitory concentration (IC50) of 0.765 µM.
The same measure for `O=C1CCN(c2cccc3c2CNC3=O)C(=O)N1` [Example 43, 1-(1-Oxoisoindolin-4-yl)dihydropyrimidine-2,4 (1H,3H)-dione]: 3.63 µM.
`COc1c(N2CCC(=O)NC2=O)ccc2cc[nH]c12` [Example 62, 1-(7-Methoxy-1H-indol-6-yl)dihydropyrimidine-2,4 (1H,3H)-dione] displayed a concentration for half-maximal inhibition (IC50) of 2.14 µM.
The same measure for `CN1CCc2ccc(N3CCC(=O)NC3=O)cc21` [Example 23, 1-(1-Methylindolin-6-yl)dihydropyrimidine-2,4 (1H,3H)-dione]: 1.06 µM.
The same measure for `O=C1CCN(c2ccc3[nH]ccc3c2)C(=O)N1` [Example 56, 1-(1H-Indol-5-yl)dihydropyrimidine-2,4 (1H,3H)-dione]: 0.341 µM.
`O=c1ccn(-c2ccc3cn(C4CCNCC4)nc3c2)c(=O)[nH]1` [Example 131, 1-(2-(Piperidin-4-yl)-2H-indazol-6-yl)pyrimidine-2,4 (1H,3H)-dione]: the IC50 was 2.13 µM.
The same measure for `Cn1c(C2CCNCC2)cc2ccc(N3CCC(=O)NC3=O)cc21` [Example 84, 1-(1-Methyl-2-(piperidin-4-yl)-1H-indol-6-yl)dihydropyrimidine-2,4 (1H,3H)-dione]: 0.357 µM; for `Cn1c(=O)oc2cc(N3CCC(=O)NC3=O)ccc21` [Example 12, 1-(3-Methyl-2-oxo-2,3-dihydrobenzo[d]oxazol-6-yl)dihydropyrimidine-2,4 (1H,3H)-dione]: 11 µM.
